Test results: publication PMC10053286, “The Importance of Epigallocatechin as a Scaffold for Drug Development against Flaviviruses” (Pharmaceutics, 2023)
Like-named read-outs stand apart in the source and are kept apart here.

Legend:
DENV2 NS2B/NS3pro [1] = target: T1, DENV2 NS2B/NS3pro (Dengue virus type 2, UniProt P14340); test: biochemical
YFV NS2B/NS3pro [2] = target: T2, YFV NS2B/NS3pro (Yellow fever virus, UniProt Q1X881); test: biochemical
WNV NS2B/NS3pro [3] = target: T3, WNV NS2B/NS3pro (West Nile virus, UniProt P06935); test: biochemical; assay type: biochemical
T3 sequence (P06935 1420-1465): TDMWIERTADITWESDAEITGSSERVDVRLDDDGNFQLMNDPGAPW
T3 sequence (P06935 1502-1671): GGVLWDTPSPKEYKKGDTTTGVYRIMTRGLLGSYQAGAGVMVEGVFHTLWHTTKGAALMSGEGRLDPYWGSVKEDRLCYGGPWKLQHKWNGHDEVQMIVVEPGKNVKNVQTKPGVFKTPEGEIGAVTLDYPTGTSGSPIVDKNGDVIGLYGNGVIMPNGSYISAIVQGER

ZIKV NS2B/NS3pro [4] = target: T4, ZIKV NS2B/NS3pro (Zika virus, UniProt A0A024B7W1); test: biochemical
T4 sequence (A0A024B7W1 1421-1467): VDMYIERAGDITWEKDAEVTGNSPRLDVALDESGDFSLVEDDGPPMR
T4 sequence (A0A024B7W1 1503-1672): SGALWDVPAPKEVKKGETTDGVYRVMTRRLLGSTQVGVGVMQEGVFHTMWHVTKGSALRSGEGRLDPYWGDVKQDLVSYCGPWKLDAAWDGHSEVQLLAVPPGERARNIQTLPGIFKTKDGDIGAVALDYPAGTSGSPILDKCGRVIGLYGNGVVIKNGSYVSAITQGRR

DENV2 NS2B/NS3pro [5] = target: T1, DENV2 NS2B/NS3pro; test: Surface plasmon resonance dissociation constant; assay type: binding
YFV NS2B/NS3pro [6] = target: T2, YFV NS2B/NS3pro; test: biochemical; assay type: binding
WNV NS2B/NS3pro [7] = target: T3, WNV NS2B/NS3pro; test: Surface plasmon resonance dissociation constant; assay type: binding
ZIKV NS2B/NS3pro [8] = target: T4, ZIKV NS2B/NS3pro; test: Surface plasmon resonance dissociation constant; assay type: binding
DENV2 NS2B/NS3pro [9] = target: T1, DENV2 NS2B/NS3pro; assay type: binding
YFV NS2B/NS3pro [10] = target: T2, YFV NS2B/NS3pro; assay type: binding
ZIKV NS2B/NS3pro [11] = target: T4, ZIKV NS2B/NS3pro; assay type: binding
ZIKV NS2B/NS3pro [12] = target: T4, ZIKV NS2B/NS3pro; details: Li and collaborators; cited from earlier work

T1 sequence (P14340 1394-1440 limits assumed): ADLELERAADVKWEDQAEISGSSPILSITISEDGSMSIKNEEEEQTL
T1 sequence (P14340 1476-1660 limits assumed): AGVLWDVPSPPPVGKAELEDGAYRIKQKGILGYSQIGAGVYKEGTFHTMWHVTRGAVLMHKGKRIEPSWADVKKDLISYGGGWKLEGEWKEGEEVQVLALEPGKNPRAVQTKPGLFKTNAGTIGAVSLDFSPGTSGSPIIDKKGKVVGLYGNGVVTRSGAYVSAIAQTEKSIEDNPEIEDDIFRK
T2 sequence (Q1X881 1402-1449 limits assumed): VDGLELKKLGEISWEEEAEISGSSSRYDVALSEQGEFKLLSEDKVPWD
T2 sequence (Q1X881 1491-1660 limits assumed): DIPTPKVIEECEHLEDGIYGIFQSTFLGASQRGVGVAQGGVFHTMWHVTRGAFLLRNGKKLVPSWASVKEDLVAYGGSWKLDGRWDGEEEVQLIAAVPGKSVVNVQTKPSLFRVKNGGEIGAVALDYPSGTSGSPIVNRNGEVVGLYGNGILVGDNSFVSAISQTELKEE

Row | SMILES | IC50 (DENV2 NS2B/NS3pro [1]) [µM] | Inhibition Mode (DENV2 NS2B/NS3pro [1]) | IC50 (YFV NS2B/NS3pro [2]) [µM] | Inhibition Mode (YFV NS2B/NS3pro [2]) | IC50 (WNV NS2B/NS3pro [3]) [µM] | Inhibition Mode (WNV NS2B/NS3pro [3]) | IC50 (ZIKV NS2B/NS3pro [4]) [µM] | Inhibition Mode (ZIKV NS2B/NS3pro [4]) | Kd (DENV2 NS2B/NS3pro [5]) [µM] | Kd (YFV NS2B/NS3pro [6]) [µM] | Kd (WNV NS2B/NS3pro [7]) [µM] | Kd (ZIKV NS2B/NS3pro [8]) [µM] | Trp emission band after titration of the molecule (excitation shift) (DENV2 NS2B/NS3pro [9]) | Trp emission band after titration of the molecule (excitation shift) (YFV NS2B/NS3pro [10]) | Trp emission band after titration of the molecule (excitation shift) (ZIKV NS2B/NS3pro [11]) | IC50 (ZIKV NS2B/NS3pro [12]) [µM]
1 | CC(=O)Oc1cc(OC(C)=O)c2c(c1)O[C@H](c1cc(OC(C)=O)c(OC(C)=O)c(OC(C)=O)c1)[C@H](OC(=O)c1cc(OC(C)=O)c(OC(C)=O)c(OC(C)=O)c1)C2 [AcEGCG, EGCG octaacetate] | 39.8 ± 2.5 | Noncompetitive | 39.1 ± 2.2 | Noncompetitive | 83.4 ± 10.4 | Noncompetitive | 102 ± 2.6 | Noncompetitive | 2.4 | 0.47 | 0.98 | 4.8 | 360 nm | 360 nm | 360 nm | 
2 | O=C(O[C@@H]1Cc2c(O)cc(O)cc2O[C@@H]1c1ccc(O)c(O)c1)c1cc(O)c(O)c(O)c1 [ECG, epicatechin gallate] |  |  |  |  |  |  |  |  |  |  |  |  |  |  |  | 89
3 | Oc1cc(O)c2c(c1)O[C@H](c1cc(O)c(O)c(O)c1)[C@H](O)C2 [EGC, epigallocatechin] | 145 ± 3 | Competitive | 19 ± 1.9 | Competitive | 17.3 ± 2.5 | Competitive | 8.9 ± 1.2 | Competitive | 0.03 | 0.27 | 0.22 | 0.02 | no excitation shift | no excitation shift | no excitation shift | 
4 | O=C(O[C@@H]1Cc2c(O)cc(O)cc2O[C@@H]1c1cc(O)c(O)c(O)c1)c1cc(O)c(O)c(O)c1 [EGCG, Epigallocatechin gallate] | 6.3 ± 1 | Noncompetitive | 8 ± 1.4 | Noncompetitive |  | Noncompetitive | 4.5 ± 0.6 | Noncompetitive | 0.07 | 0.06 |  | 0.09 |  |  |  | 
